Experiments:
[1] = tested on: T-Rex 293 cell line SC3 cells lacking increased expression of androgen receptor protein; experiment: Cellular growth inhibition, T-Rex 293 SC3 cells without doxycycline (CellTiter-Glo 2.0, 72 hours); assay type: cell-based; details: T-Rex 293 SC3 cells not exposed to doxycycline (no increased androgen receptor expression)
Description: (§1) Ability of the test compounds to inhibit proliferation of the foregoing cell types was evaluated according to the procedures set forth below.
(§2) The doxycycline-inducible androgen receptor protein expressing cell line was established using the following protocol: T-Rex 293 cells were purchased from Invitrogen (Cat #R71007) and transfected using Lipofectamine 2000 with the wild-type androgen receptor protein sequence cloned into the pcDNA4/TO vector. Transfected cells were selected using 400 μg/mL Zeocin (Invitrogen Cat #R25001). Following selection, single clones were raised and maintained in Dulbecco's Modified Eagle Medium (DMEM) supplemented with 10% w/w Tetracycline-free fetal bovine serum (FBS) and 250 μg/mL Zeocin. Clones were analyzed for expression of androgen receptor protein in the presence and absence of 10 ng/ml doxycycline (Sigma Cat #D9891), and a single doxycycline-inducible clone (hereinafter “SC3”) was selected for use in downstream assays.
(§3) The SC3 cells were seeded on poly-D-lysine coated, black clear-bottom 384-well plates at 2500/well, in 25 μL Phenol Red Free Dulbecco's Modified Eagle Medium (DMEM) supplemented with 10% w/w charcoal-dextran treated fetal bovine serum (FBS) and 1% w/w pen-strep, with or without 10 ng/ml doxycycline. Pen-Strep is a commercially available mixture of penicillin G and streptomycin, which is used in mammalian cell culture media to prevent bacterial contamination. Phenol Red Free Dulbecco's Modified Eagle Medium (DMEM) supplemented with 10% w/w charcoal-dextran treated fetal bovine serum (FBS) and 1% w/w pen-strep, with or without 10 ng/mL doxycycline is herein referred to as Treatment Medium. Following seeding of cells in the plates, the plates were spun at 300×g for 30 seconds, then equilibrated to room temperature for 30 minutes, and then deposited in a humidified tissue culture incubator maintained at 37° C. with 5% CO2.
(§4) At 24 hours after seeding of the cells, dilutions of test compound were prepared in DMSO and dissolved in Treatment Medium, to achieve a final DMSO concentration of 0.5% w/w, thereby providing the Test Compound Solution. A 25 μL aliquot of the Test Compound Solution was added to cells in the well plates. An equal volume of a solution containing DMSO and Treatment Medium was used as a negative control. Following treatment of cells with Test Compound Solution or said equal volume of a solution containing DMSO and Treatment Medium, the plates were spun at 300×g for 30 seconds, and then left in an incubator for 72 hours.
(§5) At the end of the treatment duration, cell viability was quantified with CellTiter-Glo 2.0 reagent (Promega Cat #G9243). For this purpose, plates were equilibrated to room temperature for 30 minutes, and then 25 μL of CellTiter-Glo 2.0 reagent was added to cells in the plate wells. Plates were then agitated on a shaker for two minutes at 500 rpm and subsequently incubated at room temperature for 10 minutes. Following incubation, the plates were spun at 3000×g for 30 seconds, then sealed with an optical adhesive cover, and luminescence readings were measured with an En Vision Plate Reader.
(§6) Data was normalized using zero luminescence for baseline. A four-parameter non-linear regression curve fit was applied to dose-response data in GraphPad Prism data analysis software to determine the half-maximal growth inhibitory concentration (GI50) for each test compound.

VCaP cells = experiment: Cellular growth inhibition assay for VCaP cells (CellTiter-Glo 2.0, 72 hours); assay type: cell-based, human; details: for GI50: CellTiter-Glo 2.0
Description: Exemplary compounds were tested for ability to inhibit the proliferation of VCaP cells. VCap cells are a commercially available human prostate cancer cell line.
VCaP cells were purchased from American Type Cell Culture (ATCC Cat #CRL2876) and then seeded on poly-D-lysine coated, black clear-bottom 384-well plates at 5000/well in 25 μL Dulbecco's Modified Eagle Medium (DMEM) supplemented with 10% w/w Fetal bovine serum (FBS) and 1% w/w Pen-Strep. Pen-Strep is a commercially available mixture of penicillin G and streptomycin, which is used in mammalian cell culture media to prevent bacterial contamination. Dulbecco's Modified Eagle Medium (DMEM) supplemented with 10% w/w fetal bovine serum (FBS) and 1% w/w Pen-Strep is herein referred to as Treatment Medium. Following seeding of cells in the plates, the plates were spun at 300×g for 30 seconds, then equilibrated to room temperature for 30 minutes, and then deposited in a humidified tissue culture incubator maintained at 37° C. with 5% CO2.
as §4, §5, §6

[2] = tested on: T-Rex 293 cell line SC3 cells having increased expression of androgen receptor protein due to exposure to doxycycline; experiment: Cellular growth inhibition, T-Rex 293 SC3 cells with doxycycline-induced androgen receptor (CellTiter-Glo 2.0, 72 hours); assay type: cell-based; details: for GI50: T-Rex 293 SC3 cells with 10 ng/ml doxycycline (increased androgen receptor expression), 72 hours, CellTiter-Glo 2.0
Description: as §1, §2, §3, §4, §5, §6

Row | GI50 (VCaP cells; Homo sapiens, VCaP, 72 h) | GI50 (VCaP cells; 72 hours) | Ratio of GI50's (VCaP cells; GI50 of the top compound in the pair divided by GI50 of the lower compound) | SMILES | GI50 ([1]; 72 h) | GI50 [2] | GI50 [1] | Ratio of GI50's ([2]; GI50 of the top compound in the pair divided by GI50 of the lower compound, T-Rex 293 SC3 cells with doxycycline-induced androgen receptor)
1 | < 500 nM | – | – | COC[C@@H]1N=C(c2ccc(C3CCC4(CC3)CCN(c3ccc(C(=O)NC5CCC(Oc6ccc(C#N)c(OC(F)(F)F)c6)CC5)nn3)C4)cc2)c2c(sc(C)c2C)-n2c(C)nnc21 (stereo partly drawn) [Compound I-2, N-[4-[4-cyano-3-(trifluoromethoxy)phenoxy]cyclohexyl]-6-[8-[4-[(9R)-9-(methoxymethyl)-4,5,13-trimethyl-3-thia-1,8,11,12-tetrazatricyclo[8.3.0.0^2,6]trideca-2 (6),4,7,10,12-pentaen-7-yl]phenyl]-2-azaspiro[4.5]decan-2-yl]pyridazine-3-carboxamide] | < 500 nM | < 500 nM | – | –
2 | < 500 nM | – | – | COCC[C@@H]1N=C(c2ccc(C3CCC4(CC3)CCN(c3ccc(C(=O)NC5CCC(Oc6ccc(C#N)c(OC(F)(F)F)c6)CC5)nn3)C4)cc2)c2c(sc(C)c2C)-n2c(C)nnc21 (stereo partly drawn) [Compound I-4, N-[4-[4-cyano-3-(trifluoromethoxy)phenoxy]cyclohexyl]-6-[8-[4-[(9S)-9-(2-methoxyethyl)-4,5,13-trimethyl-3-thia-1,8,11,12-tetrazatricyclo[8.3.0.0^2,6]trideca-2 (6),4,7,10,12-pentaen-7-yl]phenyl]-2-azaspiro[4.5]decan-2-yl]pyridazine-3-carboxamide] | 1500 to 3000 nM | < 500 nM | – | –
3 | < 500 nM | – | – | CC[C@@H]1N=C(c2ccc(C#CC3CC4(C3)CN(c3ccc(C(=O)N[C@H]5CC[C@H](Oc6ccc(C#N)c(OC(F)(F)F)c6)CC5)nn3)C4)cc2)c2c(sc(C)c2C)-n2c(C)nnc21 [Compound I-6, N-[4-[4-cyano-3-(trifluoromethoxy)phenoxy]cyclohexyl]-6-[6-[2-[4-[(9S)-9-ethyl-4,5,13-trimethyl-3-thia-1,8,11,12-tetrazatricyclo[8.3.0.0^2,6]trideca-2 (6),4,7,10,12-pentaen-7-yl]phenyl]ethynyl]-2-azaspiro[3.3]heptan-2-yl]pyridazine-3-carboxamide] | < 500 nM | < 500 nM | – | –
4 | < 500 nM | – | – | Cc1sc2c(c1C)C(c1ccc(C#CC3CC4(C3)CN(c3ccc(C(=O)N[C@H]5CC[C@H](Oc6ccc(C#N)c(OC(F)(F)F)c6)CC5)nn3)C4)cc1)=NC1(CC1)c1nnc(C)n1-2 [Compound I-7, N-[4-[4-cyano-3-(trifluoromethoxy)phenoxy]cyclohexyl]-6-[6-[2-[4-(4,5,13-trimethylspiro[3-thia-1,8,11,12-tetrazatricyclo[8.3.0.0^2,6]trideca-2 (6),4,7,10,12-pentaene-9,1′-cyclopropane]-7-yl)phenyl]ethynyl]-2-azaspiro[3.3]heptan-2-yl]pyridazine-3-carboxamide] | < 500 nM | < 500 nM | – | –
5 | < 500 nM | – | – | COC[C@@H]1N=C(c2ccc(C#CC3CC4(C3)CN(c3ccc(C(=O)N[C@H]5CC[C@H](Oc6ccc(C#N)c(OC(F)(F)F)c6)CC5)nn3)C4)cc2)c2c(sc(C)c2C)-n2c(C)nnc21 [Compound I-8, N-[4-[4-cyano-3-(trifluoromethoxy)phenoxy]cyclohexyl]-6-[6-[2-[4-[(9R)-9-(methoxymethyl)-4,5,13-trimethyl-3-thia-1,8,11,12-tetrazatricyclo[8.3.0.0^2,6]trideca-2 (6),4,7,10,12-pentaen-7-yl]phenyl]ethynyl]-2-azaspiro[3.3]heptan-2-yl]pyridazine-3-carboxamide] | < 500 nM | < 500 nM | – | –
6 | < 500 nM | – | – | COCC[C@@H]1N=C(c2ccc(C#CC3CC4(C3)CN(c3ccc(C(=O)N[C@H]5CC[C@H](Oc6ccc(C#N)c(OC(F)(F)F)c6)CC5)nn3)C4)cc2)c2c(sc(C)c2C)-n2c(C)nnc21 [Compound I-9, N-[4-[4-cyano-3-(trifluoromethoxy)phenoxy]cyclohexyl]-6-[6-[2-[4-[(9S)-9-(2-methoxyethyl)-4,5,13-trimethyl-3-thia-1,8,11,12-tetrazatricyclo[8.3.0.0^2,6]trideca-2 (6),4,7,10,12-pentaen-7-yl]phenyl]ethynyl]-2-azaspiro[3.3]heptan-2-yl]pyridazine-3-carboxamide] | < 500 nM | < 500 nM | – | –
7 | < 500 nM | – | – | Cc1sc2c(c1C)C(c1ccc(C#CC3CC4(C3)CN(c3ccc(C(=O)N[C@H]5CC[C@H](Oc6ccc(C#N)c(OC(F)(F)F)c6)CC5)nn3)C4)cc1)=N[C@@H](C)c1nnc(C)n1-2 [Compound I-12, N-[4-[4-cyano-3-(trifluoromethoxy)phenoxy]cyclohexyl]-6-[6-[2-[4-[(9S)-4,5,9,13-tetramethyl-3-thia-1,8,11,12-tetrazatricyclo[8.3.0.0^2,6]trideca-2 (6),4,7,10,12-pentaen-7-yl]phenyl]ethynyl]-2-azaspiro[3.3]heptan-2-yl]pyridazine-3-carboxamide] | < 500 nM | < 500 nM | – | –
8 | – | < 500 nM | – | CC[C@@H]1N=C(c2ccc(C3CCC4(CC3)CCN(c3ccc(C(=O)NC5CCC(Oc6ccc(C#N)c(OC(F)(F)F)c6)CC5)nn3)C4)cc2)c2c(sc(C)c2C)-n2c(C)nnc21 (stereo partly drawn) [Compound I-13, N-((1r,4r)-4-(4-cyano-3-(trifluoromethoxy)phenoxy)cyclohexyl)-6-(8-(4-((S)-6-ethyl-2,3,9-trimethyl-6H-thieno[3,2-f][1,2,4]triazolo[4,3-a][1,4]diazepin-4-yl)phenyl)-2-azaspiro[4.5]decan-2-yl) pyridazine-3-carboxamide] | – | < 500 nM | < 500 nM | –
9 | < 500 nM | – | – | Cc1sc2c(c1C)C(c1ccc(OC3CC4(CCN(c5ccc(C(=O)NC6CCC(Oc7ccc(C#N)c(OC(F)(F)F)c7)CC6)nn5)CC4)C3)cc1)=N[C@@H](Cc1ncco1)c1nnc(C)n1-2 (stereo partly drawn) [Compound I-16, N-[4-[4-cyano-3-(trifluoromethoxy)phenoxy]cyclohexyl]-6-[2-[4-[(9S)-4,5,13-trimethyl-9-(oxazol-2-ylmethyl)-3-thia-1,8,11,12-tetrazatricyclo[8.3.0.0^2,6]trideca-2 (6),4,7,10,12-pentaen-7-yl]phenoxy]-7-azaspiro[3.5]nonan-7-yl]pyridazine-3-carboxamide] | < 500 nM | < 500 nM | – | –
10 | – | < 500 nM | 1 | COc1cc(O[C@H]2CC[C@H](NC(=O)c3ccc(N4CCC5(CCN(c6ccc(C7=N[C@@H](C)c8nnc(C)n8-c8sc(C)c(C)c87)cc6)CC5)C4)nn3)CC2)ccc1C#N [Compound I-17, N-[4-(4-cyano-3-methoxy-phenoxy)cyclohexyl]-6-[8-[4-[(9S)-4,5,9,13-tetramethyl-3-thia-1,8,11,12-tetrazatricyclo[8.3.0.0^2,6]trideca-2 (6),4,7,10,12-pentaen-7-yl]phenyl]-2,8-diazaspiro[4.5]decan-2-yl]pyridazine-3-carboxamide] | – | < 500 nM | < 500 nM | 1

From US12668599B2, “Heterobifunctional compounds and methods of treating disease” (Halda Therapeutics OpCo, Inc., priority 2023, dated 2026)
